Reference: ChEMBL document CHEMBL5625252, “Synthesis of peptidomimetics as antibiotic adjuvants for combination with aztreonam to combat MDR Pseudomonas aeruginosa” (Eur J Med Chem, 2023)
≈ marks a conversion by molar mass, not a printed value. Calls of active or inactive are those of the source. The rule behind the calls is not given here.

Experiments:
Pseudomonas aeruginosa [1] = experiment: Antibacterial activity against Pseudomonas aeruginosa 16-2 at 128 ug/ml measured upto 24 hrs by time-kill assay; format: functional, organism-based; conditions: dose 128.0 µg/ml
Pseudomonas aeruginosa [2] = experiment: Synergistic antibacterial activity against Pseudomonas aeruginosa 21-8 assessed as aztreonam MIC at 128 ug/ml incubated for 18 hrs by checkerboard method; format: functional; conditions: dose 128 µg/ml
Pseudomonas aeruginosa [3] = experiment: Antibacterial activity against Pseudomonas aeruginosa 23-Y539 assessed as inhibition of bacterial growth incubated for 18 hrs by agar dilution method; format: functional
Pseudomonas aeruginosa [4] = experiment: Antibacterial activity against Pseudomonas aeruginosa 19-46 assessed as inhibition of bacterial growth incubated for 18 hrs by agar dilution method; format: functional
Pseudomonas aeruginosa [5] = experiment: Antibacterial activity against Pseudomonas aeruginosa 23-Y511 assessed as inhibition of bacterial growth incubated for 18 hrs by agar dilution method; format: functional
Pseudomonas aeruginosa [6] = experiment: Antibacterial activity against Pseudomonas aeruginosa 16-2 assessed as decrease in log10 CFU at 128 ug/ml measured after 24 hrs in presence of aztreonam by time-kill assay; format: functional; conditions: dose 128 µg/ml
Pseudomonas aeruginosa [7] = experiment: Synergistic antibacterial activity against Pseudomonas aeruginosa 23-Y417 assessed as aztreonam MIC at 128 ug/ml incubated for 18 hrs by checkerboard method; format: functional; conditions: dose 128 µg/ml
Pseudomonas aeruginosa [8] = experiment: Antibacterial activity against Pseudomonas aeruginosa 12-1 assessed as inhibition of bacterial growth incubated for 18 hrs by agar dilution method; format: functional
Pseudomonas aeruginosa [9] = experiment: Inhibition of Pseudomonas aeruginosa 26 MexAB-OprM assessed as accumulation of Hoechst […] at 64 ug/ml; conditions: dose 64.0 µg/ml
Pseudomonas aeruginosa [10] = experiment: Synergistic antibacterial activity against Pseudomonas aeruginosa 21-2 assessed as aztreonam MIC at 128 ug/ml incubated for 18 hrs by checkerboard method; format: functional; conditions: dose 128 µg/ml
Pseudomonas aeruginosa [11] = experiment: Antibacterial activity against Pseudomonas aeruginosa 13-35 assessed as inhibition of bacterial growth incubated for 18 hrs by agar dilution method; format: functional
Pseudomonas aeruginosa [12] = experiment: Antibacterial activity against Pseudomonas aeruginosa PAO1 at 128 ug/ml measured upto 24 hrs in presence of aztreonam by time-kill assay; format: functional, organism-based; conditions: dose 128.0 µg/ml
Pseudomonas aeruginosa [13] = experiment: Antibacterial activity against Pseudomonas aeruginosa 16-2 at 128 ug/ml measured upto 24 hrs in presence of aztreonam by time-kill assay; format: functional, organism-based; conditions: dose 128.0 µg/ml
Pseudomonas aeruginosa [14] = experiment: Synergistic antibacterial activity against Pseudomonas aeruginosa 16-11 assessed as aztreonam MIC at 128 ug/ml incubated for 18 hrs by checkerboard method; format: functional; conditions: dose 128 µg/ml
Pseudomonas aeruginosa [15] = experiment: Antibacterial activity against Pseudomonas aeruginosa 16-2 infected in Galleria mellonella assessed as larvae survival rate at 100 mg/kg after 96 hrs of innoculation; format: functional
Pseudomonas aeruginosa [16] = experiment: Synergistic antibacterial activity against Pseudomonas aeruginosa 23-Y364 assessed as aztreonam MIC at 128 ug/ml incubated for 18 hrs by checkerboard method; format: functional; conditions: dose 128 µg/ml
Pseudomonas aeruginosa [17] = experiment: Antibacterial activity against Pseudomonas aeruginosa 13-3 assessed as inhibition of bacterial growth incubated for 18 hrs by agar dilution method; format: functional
Pseudomonas aeruginosa [18] = experiment: Antibacterial activity against Pseudomonas aeruginosa 16-11 assessed as inhibition of bacterial growth incubated for 18 hrs by agar dilution method; format: functional
Pseudomonas aeruginosa [19] = experiment: Synergistic antibacterial activity against Pseudomonas aeruginosa 12-1 assessed as aztreonam MIC in CAMH broth medium supplemented with 20.99 to 21.09 mM Mg2+ by checkerboard assay; format: functional
Pseudomonas aeruginosa [20] = experiment: Synergistic antibacterial activity against Pseudomonas aeruginosa 16-11 assessed as aztreonam MIC in CAMH broth medium supplemented with 20.99 to 21.09 mM Mg2+ by checkerboard assay; format: functional
Pseudomonas aeruginosa [21] = experiment: Synergistic antibacterial activity against Pseudomonas aeruginosa 23-Y539 assessed as aztreonam MIC at 128 ug/ml incubated for 18 hrs by checkerboard method; format: functional; conditions: dose 128 µg/ml
Pseudomonas aeruginosa [22] = experiment: Synergistic antibacterial activity against Pseudomonas aeruginosa 21-7 assessed as aztreonam MIC at 128 ug/ml incubated for 18 hrs by checkerboard method; format: functional; conditions: dose 128 µg/ml
Pseudomonas aeruginosa [23] = experiment: Synergistic antibacterial activity against Pseudomonas aeruginosa 12-1 assessed as aztreonam MIC in CAMH broth medium supplemented with 0.41 to 0.51 mM Mg2+ by checkerboard assay; format: functional
Pseudomonas aeruginosa [24] = experiment: Antibacterial activity against Pseudomonas aeruginosa PAO1 infected in Galleria mellonella assessed as larvae survival rate at 100 mg/kg measured after 96 hrs post inoculation in presence of 50 mg/kg aztreonam; format: functional
Pseudomonas aeruginosa [25] = experiment: Antibacterial activity against Pseudomonas aeruginosa 13-17 assessed as inhibition of bacterial growth incubated for 18 hrs by agar dilution method; format: functional
Pseudomonas aeruginosa [26] = experiment: Antibacterial activity against Pseudomonas aeruginosa PAO1 assessed as decrease in log10 CFU at 128 ug/ml measured after 24 hrs in presence of aztreonam by time-kill assay; format: functional; conditions: dose 128 µg/ml
Pseudomonas aeruginosa [27] = experiment: Synergistic antibacterial activity against Pseudomonas aeruginosa 16-2 assessed as aztreonam MIC at 128 ug/ml incubated for 18 hrs by checkerboard method; format: functional; conditions: dose 128 µg/ml
Pseudomonas aeruginosa [28] = experiment: Synergistic antibacterial activity against Pseudomonas aeruginosa 13-35 assessed as aztreonam MIC in CAMH broth medium supplemented with 0.41 to 0.51 mM Mg2+ by checkerboard assay; format: functional
Pseudomonas aeruginosa [29] = experiment: Antibacterial activity against Pseudomonas aeruginosa PAO1 at 128 ug/ml measured upto 24 hrs by time-kill assay; format: functional, organism-based; conditions: dose 128.0 µg/ml

`NCCC[C@H](NC(=O)C[C@@H](N)Cc1ccccc1)C(=O)Nc1ccc2ccccc2c1` was tested, and the Activity (Pseudomonas aeruginosa [1]) was “inactive”, the MIC (Pseudomonas aeruginosa [2]) was 2 µg/mL and the MIC (Pseudomonas aeruginosa [3]) was 512 µg/mL (≈ 1220 µM). It also gave an MIC (Pseudomonas aeruginosa [4]) of 512 µg/mL (≈ 1220 µM), an MIC (Pseudomonas aeruginosa [5]) of 256 µg/mL (≈ 612 µM) and an Activity (Pseudomonas aeruginosa [6]) of over 2 log10CFU/ml. For the same compound, the MIC (Pseudomonas aeruginosa [7]) was 8 µg/mL, the MIC (Pseudomonas aeruginosa [8]) was 512 µg/mL (≈ 1220 µM) and the inhibition (Pseudomonas aeruginosa [9]) was “Active”. The MIC (Pseudomonas aeruginosa [10]) was 16 µg/mL, the MIC (Pseudomonas aeruginosa [11]) was 512 µg/mL (≈ 1220 µM) and the Activity (Pseudomonas aeruginosa [12]) was “Active”. For the same compound, the Activity (Pseudomonas aeruginosa [13]) was “Active”, the MIC (Pseudomonas aeruginosa [14]) was 2 µg/mL and the Activity (Pseudomonas aeruginosa [15]) was 20%. It also gave an MIC (Pseudomonas aeruginosa [16]) of 8 µg/mL, an MIC (Pseudomonas aeruginosa [17]) of 512 µg/mL (≈ 1220 µM) and an MIC (Pseudomonas aeruginosa [18]) of 512 µg/mL (≈ 1220 µM). The MIC (Pseudomonas aeruginosa [19]) was 64 µg/mL, the MIC (Pseudomonas aeruginosa [20]) was 8 µg/mL and the MIC (Pseudomonas aeruginosa [21]) was 4 µg/mL. It also gave an MIC (Pseudomonas aeruginosa [22]) of 64 µg/mL, an MIC (Pseudomonas aeruginosa [23]) of 16 µg/mL and an Activity (Pseudomonas aeruginosa [24]) of 80%. It also gave an MIC (Pseudomonas aeruginosa [25]) of 512 µg/mL (≈ 1220 µM), an Activity (Pseudomonas aeruginosa [26]) of over 2 log10CFU/ml and an MIC (Pseudomonas aeruginosa [27]) of 16 µg/mL. For the same compound, the MIC (Pseudomonas aeruginosa [28]) was 4 µg/mL and the Activity (Pseudomonas aeruginosa [29]) was “inactive”.
